Assay results from ChEMBL document CHEMBL1201861, “Genomics of Drug Sensitity in Cancer screening data, Wellcome Trust Sanger Institute”.

Tests used:
Assay in all cases: cells
Format in all cases: functional, cell-based
Settings in all cases: Homo sapiens
[1] = system: T84;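 note: growth inhibition measured with a cell viability readout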
Description: SANGER: Inhibition of human T84 cell growth in a cell viability assay.

[2] = system: AU565;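 note: cell viability assay measuring growth inhibition of human AU565 cells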
Description: SANGER: Inhibition of human AU565 cell growth in a cell viability assay.

[3] = system: EFM-19;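 note: growth inhibition of human EFM-19 cells, measured in a cell viability assay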
Description: SANGER: Inhibition of human EFM-19 cell growth in a cell viability assay.

[4] = system: CP50-MEL-B;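 note: growth inhibition of the human cell line, measured with a cell viability read-out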
Description: SANGER: Inhibition of human CP50-MEL-B cell growth in a cell viability assay.

[5] = system: HPAF-II;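 note: growth inhibition of HPAF-II cells, read out with a cell viability assay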
Description: SANGER: Inhibition of human HPAF-II cell growth in a cell viability assay.

[6] = system: HT-3;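 note: growth inhibition measured with a cell viability readout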
Description: SANGER: Inhibition of human HT-3 cell growth in a cell viability assay.

[7] = system: RVH-421
Description: SANGER: Inhibition of human RVH-421 cell growth in a cell viability assay.

[8] = system: RMG-I;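 note: growth inhibition of human RMG-I cells, read out with a cell viability assay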
Description: SANGER: Inhibition of human RMG-I cell growth in a cell viability assay.

[9] = system: SW948;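 note: growth inhibition of SW948 cells, read out with a cell viability assay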
Description: SANGER: Inhibition of human SW948 cell growth in a cell viability assay.

[10] = system: VMRC-RCZ;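 note: growth inhibition measured with a cell viability assay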
Description: SANGER: Inhibition of human VMRC-RCZ cell growth in a cell viability assay.

[11] = system: SW1463;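 note: growth inhibition of SW1463 cells, determined with a cell viability assay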
Description: SANGER: Inhibition of human SW1463 cell growth in a cell viability assay.

[12] = system: 769-P
Description: SANGER: Inhibition of human 769-P cell growth in a cell viability assay.

[13] = system: KP-4;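 note: human KP-4 cells, with growth inhibition read out through a cell viability assay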
Description: SANGER: Inhibition of human KP-4 cell growth in a cell viability assay.

[14] = system: KYSE-450;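 note: cell growth inhibition measured by a viability assay in human KYSE-450 cells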
Description: SANGER: Inhibition of human KYSE-450 cell growth in a cell viability assay.

[15] = system: CaR-1;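 note: growth inhibition of human CaR-1 cancer cells, read out with a cell viability assay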
Description: SANGER: Inhibition of human CaR-1 cell growth in a cell viability assay.

[16] = system: UO-31;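 note: cell viability assay measuring inhibition of cell growth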
Description: SANGER: Inhibition of human U031 cell growth in a cell viability assay.

[17] = system: NCI-H2347;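 note: growth inhibition of the cell line, read out with a cell viability assay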
Description: SANGER: Inhibition of human NCI-H2347 cell growth in a cell viability assay.

[18] = system: U-251;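 note: growth inhibition of human U-251 cells, read out through a cell viability assay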
Description: SANGER: Inhibition of human U251 cell growth in a cell viability assay.

[19] = system: M059J;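 note: growth inhibition of M059J cells, read out with a cell viability assay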
Description: SANGER: Inhibition of human M059J cell growth in a cell viability assay.

[20] = system: OVCAR-8;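 note: growth inhibition of human OVCAR-8 cells, read out by a cell viability assay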
Description: SANGER: Inhibition of human OVCAR-8 cell growth in a cell viability assay.

[21] = system: KYSE-140;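 note: cell viability assay measuring growth inhibition in human KYSE-140 cells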
Description: SANGER: Inhibition of human KYSE-140 cell growth in a cell viability assay.

[22] = system: UACC-893
Description: SANGER: Inhibition of human UACC-893 cell growth in a cell viability assay.

[23] = system: T47D;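 note: growth inhibition of human T47D cells, measured with a cell viability assay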
Description: SANGER: Inhibition of human T47D cell growth in a cell viability assay.

[24] = system: RPMI-7951
Description: SANGER: Inhibition of human RPMI-7951 cell growth in a cell viability assay.

[25] = system: P12-Ichikawa
[26] = system: NCI-H727;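 note: growth inhibition of human NCI-H727 cells, read out with a cell viability assay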
Description: SANGER: Inhibition of human NCI-H727 cell growth in a cell viability assay.

[27] = system: EGI-1;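 note: cell viability readout used to gauge growth inhibition of EGI-1 cells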
Description: SANGER: Inhibition of human EGI-1 cell growth in a cell viability assay.

[28] = system: SK-N-AS;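 note: growth inhibition of human SK-N-AS cells, measured with a cell viability assay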
Description: SANGER: Inhibition of human SK-N-AS cell growth in a cell viability assay.

[29] = system: TYK-nu;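 note: growth inhibition of human TYK-nu cells, read out by a cell viability assay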
Description: SANGER: Inhibition of human TYK-nu cell growth in a cell viability assay.

[30] = system: NCI-N87;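 note: growth inhibition of human NCI-N87 cells, read out with a cell viability assay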
Description: SANGER: Inhibition of human NCI-N87 cell growth in a cell viability assay.

[31] = system: YAPC;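 note: growth inhibition of YAPC cells, measured with a cell viability assay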
Description: SANGER: Inhibition of human YAPC cell growth in a cell viability assay.

[32] = system: AGS;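 note: growth inhibition of AGS cells, determined with a cell viability assay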
Description: SANGER: Inhibition of human AGS cell growth in a cell viability assay.

[33] = system: BFTC-909
Description: SANGER: Inhibition of human BFTC-909 cell growth in a cell viability assay.

[34] = system: NCI-H2009;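 note: cell viability assay measuring inhibition of NCI-H2009 cell growth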
Description: SANGER: Inhibition of human NCI-H2009 cell growth in a cell viability assay.

[35] = system: Detroit 562;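 note: growth inhibition of human Detroit 562 cells, read out by a cell viability assay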
Description: SANGER: Inhibition of human Detroit562 cell growth in a cell viability assay.

[36] = system: Ca-Ski;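 note: cell viability assay measuring inhibition of Ca-Ski cell growth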
Description: SANGER: Inhibition of human Ca-Ski cell growth in a cell viability assay.

[37] = system: SK-MEL-24;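 note: growth inhibition read out by a cell viability assay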
Description: SANGER: Inhibition of human SK-MEL-24 cell growth in a cell viability assay.

[38] = system: COLO-679
Description: SANGER: Inhibition of human COLO-679 cell growth in a cell viability assay.

[39] = system: NCI-H1993;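 note: growth inhibition of the cancer cell line, assessed with a cell viability assay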
Description: SANGER: Inhibition of human NCI-H1993 cell growth in a cell viability assay.

[40] = system: C32;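 note: cell viability assay, with IC50 reflecting inhibition of C32 cell growth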
Description: SANGER: Inhibition of human C32 cell growth in a cell viability assay.

[41] = system: CAL-51;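 note: human CAL-51 cell line, growth inhibition read out via a cell viability assay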
Description: SANGER: Inhibition of human CAL-51 cell growth in a cell viability assay.

[42] = system: RERF-LC-MS;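 note: growth inhibition of human RERF-LC-MS cells, read out by a cell viability assay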
Description: SANGER: Inhibition of human RERF-LC-MS cell growth in a cell viability assay.

[43] = system: CAL-85-1;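 note: growth inhibition of human CAL-85-1 cells, read out with a cell viability assay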
Description: SANGER: Inhibition of human CAL-85-1 cell growth in a cell viability assay.

[44] = system: TGW;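 note: growth inhibition of human TGW cells, read out with a cell viability assay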
Description: SANGER: Inhibition of human TGW cell growth in a cell viability assay.

For `NC(=O)c1ncn([C@@H]2O[C@H](COP(=O)(O)O)[C@@H](O)[C@H]2O)c1N`, the IC50 [1] was > 2000 µM, the IC50 [2] was 357 µM and the IC50 [3] was 343 µM. For the same compound, the IC50 [4] was > 2000 µM, the IC50 [5] was > 2000 µM and the IC50 [6] was 472 µM. The IC50 [7] was > 2000 µM, the IC50 [8] was > 2000 µM and the IC50 [9] was > 2000 µM. For the same compound, the IC50 [10] was > 2000 µM, the IC50 [11] was > 2000 µM and the IC50 [12] was > 2000 µM. For the same compound, the IC50 [13] was > 2000 µM, the IC50 [14] was 1300 µM and the IC50 [15] was 1650 µM. The IC50 [16] was 766 µM, the IC50 [17] was > 2000 µM and the IC50 [18] was > 2000 µM. For the same compound, the IC50 [19] was > 2000 µM, the IC50 [20] was > 2000 µM and the IC50 [21] was 1730 µM. For the same compound, the IC50 [22] was > 2000 µM, the IC50 [23] was 413 µM and the IC50 [24] was 1580 µM. The IC50 [25] was 1470 µM, the IC50 [26] was > 2000 µM and the IC50 [27] was > 2000 µM. For the same compound, the IC50 [28] was > 2000 µM, the IC50 [29] was > 2000 µM and the IC50 [30] was 1490 µM. For the same compound, the IC50 [31] was > 2000 µM, the IC50 [32] was > 2000 µM and the IC50 [33] was > 2000 µM. For the same compound, the IC50 [34] was 1460 µM, the IC50 [35] was 1220 µM and the IC50 [36] was > 2000 µM. For the same compound, the IC50 [37] was > 2000 µM.

In the case of `CC[C@@]1(O)C(=O)OCc2c1cc1n(c2=O)Cc2cc3ccccc3nc2-1` [CAMPTOTHECIN], the IC50 [1] is reported as > 0.1 µM, the IC50 [2] is reported as 0.00368 µM and the IC50 [4] is reported as 0.0721 µM. The IC50 [38] was > 0.1 µM, the IC50 [5] was 0.0551 µM and the IC50 [6] was 0.000212 µM. The IC50 [39] was > 0.1 µM, the IC50 [40] was 0.0134 µM and the IC50 [41] was 0.0297 µM. For the same compound, the IC50 [7] was 0.0715 µM, the IC50 [10] was 0.0473 µM and the IC50 [11] was 0.0517 µM. It also gave an IC50 [12] of 0.0253 µM, an IC50 [13] of 0.00316 µM and an IC50 [14] of 0.0237 µM. The IC50 [15] was 0.00643 µM, the IC50 [16] was 0.0341 µM and the IC50 [18] was 0.00187 µM. For the same compound, the IC50 [42] was 0.0229 µM, the IC50 [43] was > 0.1 µM and the IC50 [19] was 0.0041 µM. For the same compound, the IC50 [20] was 0.00727 µM, the IC50 [21] was 0.0697 µM and the IC50 [23] was 0.0135 µM. The IC50 [24] was 0.00475 µM, the IC50 [25] was 0.000102 µM and the IC50 [26] was > 0.1 µM. The IC50 [27] was 0.0251 µM, the IC50 [28] was 0.00538 µM and the IC50 [29] was 0.00494 µM. It also gave an IC50 [30] of 0.00874 µM, an IC50 [31] of 0.0296 µM and an IC50 [32] of 0.0161 µM. For the same compound, the IC50 [33] was 0.00692 µM, the IC50 [34] was 0.0681 µM and the IC50 [35] was 0.0133 µM. The IC50 [36] was 0.00497 µM and the IC50 [37] was 0.0385 µM.

With `Cn1c(=O)n(-c2ccc(C(C)(C)C#N)cc2)c2c3cc(-c4cnc5ccccc5c4)ccc3ncc21` [DACTOLISIB] the IC50 [1] was > 2 µM, the IC50 [2] was 0.213 µM and the IC50 [3] was 0.0675 µM. The IC50 [4] was 0.0774 µM, the IC50 [38] was 0.122 µM and the IC50 [5] was 0.156 µM. The IC50 [6] was 0.38 µM, the IC50 [39] was > 2 µM and the IC50 [40] was 0.0538 µM. For the same compound, the IC50 [41] was 0.0239 µM, the IC50 [7] was 0.0537 µM and the IC50 [8] was 0.468 µM. For the same compound, the IC50 [9] was > 2 µM, the IC50 [10] was 0.0156 µM and the IC50 [44] was 0.76 µM. For the same compound, the IC50 [11] was 0.739 µM, the IC50 [12] was 0.0104 µM and the IC50 [13] was 0.007 µM. The IC50 [14] was 0.0552 µM, the IC50 [15] was 0.0682 µM and the IC50 [16] was 0.0967 µM. For the same compound, the IC50 [17] was 0.173 µM, the IC50 [18] was 0.0384 µM and the IC50 [42] was 0.124 µM. It also gave an IC50 [43] of 0.0925 µM, an IC50 [19] of 0.0636 µM and an IC50 [20] of 0.0313 µM. For the same compound, the IC50 [21] was 0.0506 µM, the IC50 [22] was 0.406 µM and the IC50 [23] was 0.0679 µM. The IC50 [24] was 0.0193 µM, the IC50 [25] was 0.0151 µM and the IC50 [26] was 0.412 µM. The IC50 [27] was 0.0164 µM, the IC50 [28] was 0.137 µM and the IC50 [29] was 0.00994 µM. The IC50 [30] was 0.111 µM, the IC50 [31] was 0.491 µM and the IC50 [32] was 0.0488 µM. It also gave an IC50 [33] of 0.00371 µM, an IC50 [35] of 0.102 µM and an IC50 [36] of 0.156 µM. For the same compound, the IC50 [37] was 0.517 µM.

`CC(=O)c1c(C)c2cnc(Nc3ccc(N4CCNCC4)cn3)nc2n(C2CCCC2)c1=O` [PALBOCICLIB] was tested, and the IC50 [1] was > 4 µM, the IC50 [2] was > 4 µM and the IC50 [3] was > 4 µM. For the same compound, the IC50 [4] was > 4 µM, the IC50 [38] was > 4 µM and the IC50 [5] was > 4 µM. The IC50 [6] was > 4 µM, the IC50 [39] was > 4 µM and the IC50 [40] was > 4 µM. The IC50 [41] was 1.75 µM, the IC50 [7] was > 4 µM and the IC50 [8] was > 4 µM. For the same compound, the IC50 [9] was > 4 µM, the IC50 [10] was 3.36 µM and the IC50 [44] was 1.12 µM. The IC50 [11] was > 4 µM, the IC50 [12] was > 4 µM and the IC50 [14] was > 4 µM. The IC50 [15] was > 4 µM, the IC50 [17] was > 4 µM and the IC50 [18] was 0.814 µM. The IC50 [42] was > 4 µM, the IC50 [43] was > 4 µM and the IC50 [19] was > 4 µM. For the same compound, the IC50 [20] was > 4 µM, the IC50 [21] was > 4 µM and the IC50 [23] was 1.68 µM. The IC50 [24] was 2.76 µM, the IC50 [25] was 0.096 µM and the IC50 [26] was > 4 µM. For the same compound, the IC50 [27] was 2.47 µM, the IC50 [28] was 0.388 µM and the IC50 [29] was 0.998 µM. The IC50 [30] was > 4 µM, the IC50 [31] was > 4 µM and the IC50 [32] was > 4 µM. For the same compound, the IC50 [33] was > 4 µM, the IC50 [35] was > 4 µM and the IC50 [36] was > 4 µM.
